For 19 compounds, IC50 results are on record in patent US9073940B2, “Tricyclic pyrazol amine derivatives” (MERCK SERONO SA, priority 2009, dated 2015).

Assay [1] concerns 4 PI3K isoforms (Human recombinant GST-PI3K). Briefly: PI3K scintillation proximity assay, best IC50 obtained with the four isoforms (alpha, beta, delta, gamma). The format is biochemical. As to conditions: best IC50 obtained with the four isoforms of PI3K; read-out: Best potency measured on the 4 PI3K isoforms.
Assay [2] relates to AKT phosphorylation (p-AKT Ser 473) in Ramos B-lymphocyte cell line. Briefly: Mechanistic on-target cell assay: flow cytometry of AKT phosphorylation after anti-human IGM stimulation. It counts as cell-based. The procedure: Mechanistic-On Target Cell Assay
The reaction was stopped by fixing the cells with Paraformaldehyde 4% (final) for 10 minutes at room temperature. Cells were washed once with Phosphate Buffer Saline (PBS), permabilized in PBS-Triton X-100 0.2% for 15 minutes at room temperature washed twice with PBS and once with PBS-4% serum. […] Cells were washed twice in PBS and resuspended in PBS. The cell suspension was passed on a FC500 flow cytometer (Beckman Coulter), gating on the IGM positive cells and measuring the AKT phosphorylation.

The target of a further assay is CK2 protein kinase (Homo sapiens (Human), UniProt P68400). As to conditions: cited from earlier work.
Another assay relates to Class I PI3-kinases. As to conditions: each of the Class I PI3-kinases, cited from earlier work.

Like-named read-outs stand apart in the source and are kept apart here.

Chain of CK2 protein kinase (P68400 whole entry): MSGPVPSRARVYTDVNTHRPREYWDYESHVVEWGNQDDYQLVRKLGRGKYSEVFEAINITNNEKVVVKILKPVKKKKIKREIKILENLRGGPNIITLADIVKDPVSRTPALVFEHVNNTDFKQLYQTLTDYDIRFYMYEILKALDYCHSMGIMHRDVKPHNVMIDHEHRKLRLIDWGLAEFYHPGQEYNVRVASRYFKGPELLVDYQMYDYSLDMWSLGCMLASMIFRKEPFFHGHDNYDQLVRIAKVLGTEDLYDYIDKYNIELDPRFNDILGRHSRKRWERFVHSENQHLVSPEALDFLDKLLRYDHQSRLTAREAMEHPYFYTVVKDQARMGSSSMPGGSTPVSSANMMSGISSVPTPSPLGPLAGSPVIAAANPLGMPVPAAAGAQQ

For the compound `O=C(c1nn([C@H]2CCCN(CCN3CCOCC3)C2)c2c1CS(=O)(=O)c1cc(F)ccc1-2)N1CCOCC1` (stereo in doubt) [Example 472, 7-fluoro-3-(morpholin-4-ylcarbonyl)-1-[1-(2-morpholin-4-ylethyl)piperidin-3-yl]-1,4-dihydrothiochromeno[4,3-c]pyrazole 5,5-dioxide], the results for the IC50 in assay [1] and in assay [2] were 14 nM and 45 nM, respectively.
For `COc1cccc2c1S(=O)(=O)Cc1c(C(=O)N3CCOCC3)nn(-c3ccccc3)c1-2` [Example 1, 6-methoxy-3-(morpholin-4-ylcarbonyl)-1-phenyl-1,4-dihydrothiochromeno[4,3-c]pyrazole 5,5-dioxide], in that order: 459 nM and 570 nM.
In the case of `Cc1ccc(-n2nc(C(=O)N3CCOCC3)c3c2-c2ccccc2S(=O)(=O)C3)cc1` [Example 7, 1-(4-methylphenyl)-3-(morpholin-4-ylcarbonyl)-1,4-dihydrothiochromeno[4,3-c]pyrazole 5,5-dioxide], the IC50 in assay [1] came out at 690 nM; in assay [2] it was 976 nM.
For `O=C(c1nn(C2CCCCC2)c2c1CS(=O)(=O)c1ccccc1-2)N1CCOCC1` [Example 12, 1-cyclohexyl-3-(morpholin-4-ylcarbonyl)-1,4-dihydrothiochromeno[4,3-c]pyrazole 5,5-dioxide], in that order: 136 nM and 167 nM.
Take `O=C(c1nn(-c2ccccc2)c2c1CS(=O)(=O)c1c(F)cccc1-2)N1CCOCC1` [Example 15, 6-fluoro-3-(morpholin-4-ylcarbonyl)-1-phenyl-1,4-dihydrothiochromeno[4,3-c]pyrazole 5,5-dioxide]: the IC50 in assay [1] came to 424 nM; in assay [2] it was 364 nM.
For `O=C(c1nn(-c2ccccc2)c2c1CS(=O)(=O)c1ccccc1-2)N1CCOCC1` [Example 33, 3-(morpholin-4-ylcarbonyl)-1-phenyl-1,4-dihydrothiochromeno[4,3-c]pyrazole 5,5-dioxide], in that order: 244 nM and 706 nM.
For `Cn1nc(C(=O)N2CCOCC2)c2c1-c1ccccc1S(=O)(=O)C2` [Example 34, 1-methyl-3-(morpholin-4-ylcarbonyl)-1,4-dihydrothiochromeno[4,3-c]pyrazole 5,5-dioxide], the results for the IC50 in assay [1] and in assay [2] were 1750 nM and 1800 nM, respectively.
For `CCn1nc(C(=O)N2CCOCC2)c2c1-c1ccccc1S(=O)(=O)C2` [Example 37, 1-ethyl-3-(morpholin-4-ylcarbonyl)-1,4-dihydrothiochromeno[4,3-c]pyrazole 5,5-dioxide], in that order: 601 nM and 493 nM.
With `COc1ccc(Cn2nc(C(=O)N3CCOCC3)c3c2-c2ccccc2S(=O)(=O)C3)cc1` [Example 38, 1-(4-methoxybenzyl)-3-(morpholin-4-ylcarbonyl)-1,4-dihydrothiochromeno[4,3-c]pyrazole 5,5-dioxide], the results for the IC50 in assay [1] and in assay [2] were 459 nM and 942 nM, respectively.
Turning to `CCCn1nc(C(=O)N2CCOCC2)c2c1-c1ccccc1S(=O)(=O)C2` [Example 39, 3-(morpholin-4-ylcarbonyl)-1-propyl-1,4-dihydrothiochromeno[4,3-c]pyrazole 5,5-dioxide], the IC50 amounted to 641 nM in assay [1] and 388 nM in assay [2].
For `O=C(c1nn(CCO)c2c1CS(=O)(=O)c1ccccc1-2)N1CCOCC1` [Example 46, 2-[3-(morpholin-4-ylcarbonyl)-5,5-dioxidothiochromeno[4,3-c]pyrazol-1(4H)-yl]ethanol], in that order: 661 nM and 680 nM.
With `O=C(c1nn(CC2CCNCC2)c2c1CS(=O)(=O)c1ccccc1-2)N1CCOCC1` [Example 56, 3-(morpholin-4-ylcarbonyl)-1-(piperidin-4-ylmethyl)-1,4-dihydrothiochromeno[4,3-c]pyrazole 5,5-dioxide], the values for the IC50 in assay [1] and in assay [2] were 531 nM and 8150 nM, respectively.
In the same order, the values of `Nc1ccc2c(c1)-c1c(c(C(=O)N3CCOCC3)nn1-c1ccccc1)CS2(=O)=O` [Example 65, 3-(Morpholin-4-ylcarbonyl)-1-phenyl-1,4-dihydrothiochromeno[4,3-c]pyrazol-8-amine 5,5-dioxide] are 368 nM and 251 nM.
For `CS(=O)(=O)NCc1ccc(-n2nc(C(=O)N3CCOCC3)c3c2-c2ccccc2S(=O)(=O)C3)cc1` [Example 66, N-{4-[3-(Morpholin-4-ylcarbonyl)-5,5-dioxidothiochromeno[4,3-c]pyrazol-1(4H)-yl]benzyl}methanesulfonamide], in that order: 421 nM and 942 nM.
With `O=C(c1nn(C2CCCC2)c2c1CS(=O)(=O)c1ccccc1-2)N1CCOCC1` [Example 73, 1-Cyclopentyl-3-(morpholin-4-ylcarbonyl)-1,4-dihydrothiochromeno[4,3-c]pyrazole 5,5-dioxide], the IC50 in assay [1] is 205 nM; in assay [2], 317 nM.
Regarding `O=C(c1nn(C2CCCCC2)c2c1CS(=O)(=O)c1ncccc1-2)N1CCOCC1` [Example 79, 3-(Morpholin-4-ylcarbonyl)-1-cyclohexyl-1,4-dihydropyrazolo[3′,4′:4,5]thio pyrano[2,3-b]pyridine 5,5-dioxide], the IC50 in assay [1] was 437 nM; in assay [2], 492 nM.
In the same order, the values of `CN(C)Cc1ccc(-n2nc(C(=O)N3CCOCC3)c3c2-c2ccccc2S(=O)(=O)C3)cc1` [Example 226, N,N-Dimethyl-1-{4-[3-(morpholin-4-ylcarbonyl)-5,5-dioxidothiochromeno[4,3-c]pyrazol-1(4H)-yl]phenyl}methanamine] are 43 nM and 492 nM.
`O=c1cc(N2CCOCC2)oc2c(-c3ccccc3)cccc12` [LY294002]: the IC50 on CK2 protein kinase is 5000 to 10000 nM; with Class I PI3-kinases (read-out: IC50 against each of these PI3-kinases), 15000 to 20000 nM.
With `COC[C@H]1OC(=O)c2coc3c2[C@@]1(C)C1=C(C3=O)[C@@H]2CCC(=O)[C@@]2(C)C[C@H]1OC(C)=O` [Wortmannin], in the assay on Class I PI3-kinases (read-out: IC50 against each of the various Class I PI3-kinases), the IC50 is 1 to 10 nM.
